Experimental data from paper PMC7031696 (Cell chemical biology, 2019).
Read-outs that look alike come from different tables or passages of the source.

What was measured:
[1] = tested on: 3D7-MR4 trophozoite parasite-infected RBCs; experiment: Metabolomic profiling (hydrophilic metabolite changes, UHPLC-MS); assay type: cell-based, Plasmodium falciparum
[2] = tested on: asynchronous 3D7-A10 parasite cultures; experiment: Standard 72-h exposure asexual blood stage susceptibility assay (IC50^72h); assay type: cell-based, Plasmodium falciparum; conditions: Plasmodium falciparum, 3D7, 72 h, read-out: Overall (72hr assay) Mean IC50 (IC50^72h)
[3] = tested on: Plasmodium falciparum 3D7-A10 parasites; experiment: Stage specificity assay (8-h exposure of synchronized stages, IC50^8h); assay type: cell-based; conditions: Plasmodium falciparum

O=C(Nc1ccc(N2CCNCC2)cc1)c1ccn2ncc(-c3cccc(Cl)c3)c2n1.O=C(O)C(F)(F)F [MMV022478]
peptide levels (hemoglobin catabolism signature) ([1]; 10 × IC50^72h, 2.5 hr, trophozoites): decreased peptide levels | Log2(fold changes) 3-phosphoglycerate ([1]; metabolite 3-phosphoglycerate, log2 fold change): -0.2221 | Log2(fold changes) 4-Pyridoxic acid ([1]; metabolite 4-Pyridoxic acid, log2 fold change): 0.0000 | Log2(fold changes) 4-aminobutyrate ([1]; metabolite 4-aminobutyrate, log2 fold change): -1.1535 | Log2(fold changes) 4-phosphopantetheine ([1]; metabolite 4-phosphopantetheine, log2 fold change): 0.0000 | Log2(fold changes) 4-phosphopantothenate ([1]; metabolite 4-phosphopantothenate, log2 fold change): -2.5840 | Log2(fold changes) 5-aminopentanoic acid ([1]; metabolite 5-aminopentanoic acid, log2 fold change): 0.0000 | Log2(fold changes) 5-methyl-THF ([1]; metabolite 5-methyl-THF, log2 fold change): 0.0000 | Log2(fold changes) 5-phosphoribosyl-1-pyrophosphate ([1]; metabolite 5-phosphoribosyl-1-pyrophosphate, log2 fold change): -3.8277 | Log2(fold changes) 6-phospho-D-gluconate ([1]; metabolite 6-phospho-D-gluconate, log2 fold change): -1.2363 | Log2(fold change) HVDD ([1]; metabolite HVDD): -6.0354 | Log2(fold change) Hydroxyisocaproic acid ([1]; metabolite Hydroxyisocaproic acid): 0.0000 | Log2(fold change) IDP ([1]; metabolite IDP): 0.0000 | Log2(fold change) IMP ([1]; metabolite IMP): -1.9723 | Log2(fold change) Inositol ([1]; metabolite Inositol): 0.0000 | Log2(fold change) Isopentyl-PP ([1]; metabolite Isopentyl-PP): 0.0000 | Log2(fold change) L-arginino-succinate ([1]; metabolite L-arginino-succinate): 0.0000 | Log2(fold change) LD ([1]; metabolite LD): 0.0000 | Log2(fold change) Myristoyl/tetradecanoyl-CoA ([1]; metabolite Myristoyl/tetradecanoyl-CoA): 0.0000 | Log2(fold change) N-Acetyl-L-alanine ([1]; metabolite N-Acetyl-L-alanine): -4.1046 | Log2(fold change) N-acetyl-L-ornithine ([1]; metabolite N-acetyl-L-ornithine): -4.9077 | Log2(fold change) N-acetyl-glucosamine-1/6-phosphate ([1]; metabolite N-acetyl-glucosamine-1/6-phosphate): -2.7078 | Log2(fold change) N-acetyl-glutamate ([1]; metabolite N-acetyl-glutamate): -2.2943 | Log2(fold change) N-acetyl-glutamine ([1]; metabolite N-acetyl-glutamine): 0.0000 | Log2(fold change) N-carbamoyl-L-aspartate ([1]; metabolite N-carbamoyl-L-aspartate): -4.4049 | Log2(fold change) NAD+ ([1]; metabolite NAD+): 0.0000 | Log2(fold change) NADH ([1]; metabolite NADH): 0.4682 | Log2(fold change) NADP+ ([1]; metabolite NADP+): -1.0797 | Log2(fold change) NADPH ([1]; metabolite NADPH): -1.0955 | Log2(fold change) O-acetyl-L-serine ([1]; metabolite O-acetyl-L-serine): 0.0000 | Log2(fold change) Octoluse 8/1P ([1]; metabolite Octoluse 8/1P): 0.0000 | Log2(fold change) Octoluse Bisphosphate ([1]; metabolite Octoluse Bisphosphate): -0.1243 | Log2(fold change) PD ([1]; metabolite PD): -4.6260 | Log2(fold change) PE ([1]; metabolite PE): -5.1379 | Log2(fold change) PEE ([1]; metabolite PEE): -4.6436 | Log2(fold change) PEEK ([1]; metabolite PEEK): 0.0000 | Log2(fold change) PVNF ([1]; metabolite PVNF): -7.1540 | Log2(fold change) Pyroglutamic acid ([1]; metabolite Pyroglutamic acid): 0.0000 | Log2(fold change) Pyrophosphate ([1]; metabolite Pyrophosphate): 0.0000 | Log2(fold change) Ribose-5-phosphate ([1]; metabolite Ribose-5-phosphate): -2.7334 | Log2(fold change) S-adenosyl-L-homocysteine ([1]; metabolite S-adenosyl-L-homocysteine): -2.8781 | Log2(fold change) S-adenosyl-L-methioninamine ([1]; metabolite S-adenosyl-L-methioninamine): 0.0000 | Log2(fold change) S-adenosyl-L-methionine ([1]; metabolite S-adenosyl-L-methionine): 0.0000 | Log2(fold change) S-methyl-5'-thioadenosine ([1]; metabolite S-methyl-5'-thioadenosine): 0.0000 | Log2(fold change) SD ([1]; metabolite SD): -2.2622 | Log2(fold change) SDL ([1]; metabolite SDL): 0.0000 | Log2(fold change) SID ([1]; metabolite SID): -5.7557 | Log2(fold change) Sedoheptulose bisphosphate ([1]; metabolite Sedoheptulose bisphosphate): -0.2613 | Log2(fold change) Thiamine pyrophosphate ([1]; metabolite Thiamine pyrophosphate): 0.0000 | Log2(fold changes) UDP-D-glucose ([1]; metabolite UDP-D-glucose, log2 fold change): -0.2797 | Log2(fold changes) UDP-D-glucuronate ([1]; metabolite UDP-D-glucuronate, log2 fold change): -0.6750 | Log2(fold changes) UDP-N-acetyl-glucosamine ([1]; metabolite UDP-N-acetyl-glucosamine, log2 fold change): -0.7739 | Log2(fold changes) UDP ([1]; metabolite UDP, log2 fold change): -2.1596 | Log2(fold changes) UMP ([1]; metabolite UMP, log2 fold change): -1.4504 | Log2(fold changes) UTP ([1]; metabolite UTP, log2 fold change): -1.2572 | Log2(fold change) hydroxyphenylpyruvate ([1]; metabolite hydroxyphenylpyruvate): 0.0000 | Log2(fold change) hydroxyproline/Aminolevulinate ([1]; metabolite hydroxyproline/Aminolevulinate): -0.1426 | Log2(fold change) hypoxanthine ([1]; metabolite hypoxanthine): 0.3419 | Log2(fold change) indole ([1]; metabolite indole): 0.0000 | Log2(fold change) inosine ([1]; metabolite inosine): -0.5164 | Log2(fold change) isoleucine ([1]; metabolite isoleucine): 0.2629 | Log2(fold change) lactate ([1]; metabolite lactate): -0.9550 | Log2(fold change) leucine ([1]; metabolite leucine): 0.0229 | Log2(fold change) lysine ([1]; metabolite lysine): 0.0000 | Log2(fold change) malate ([1]; metabolite malate): -1.9880 | Log2(fold change) maleic acid ([1]; metabolite maleic acid): -2.0576 | Log2(fold change) methionine ([1]; metabolite methionine): 0.4668 | Log2(fold change) myo-inositol ([1]; metabolite myo-inositol): 0.0000 | Log2(fold change) nicotinamide mononucleotide ([1]; metabolite nicotinamide mononucleotide): 0.0000 | Log2(fold change) nicotinate ([1]; metabolite nicotinate): -0.5789 | Log2(fold change) ornithine ([1]; metabolite ornithine): 0.0000 | Log2(fold change) orotate ([1]; metabolite orotate): -1.4233 | Log2(fold change) orotidine-5'-phosphate ([1]; metabolite orotidine-5'-phosphate): -3.1182 | Log2(fold change) oxaloacetate ([1]; metabolite oxaloacetate): 0.0000 | Log2(fold change) p-aminobenzoate ([1]; metabolite p-aminobenzoate): 0.0000 | Log2(fold change) p-hydroxybenzoate ([1]; metabolite p-hydroxybenzoate): 0.0000 | Log2(fold change) pantothenate ([1]; metabolite pantothenate): -0.7783 | Log2(fold change) phenylalanine ([1]; metabolite phenylalanine): -0.1127 | Log2(fold change) phenylpyruvate ([1]; metabolite phenylpyruvate): 0.0000 | Log2(fold change) phosphoenolpyruvate ([1]; metabolite phosphoenolpyruvate): 0.1262 | Log2(fold change) prephenate ([1]; metabolite prephenate): 0.0000 | Log2(fold change) proline ([1]; metabolite proline): -0.3073 | Log2(fold change) pyridoxine ([1]; metabolite pyridoxine): 0.2157 | Log2(fold change) pyruvate ([1]; metabolite pyruvate): -1.6686 | Log2(fold change) riboflavin ([1]; metabolite riboflavin): 0.0000 | Log2(fold change) ribose ([1]; metabolite ribose): 0.4922 | Log2(fold change) ribose-phosphate ([1]; metabolite ribose-phosphate): -2.5305 | Log2(fold change) ribulose-5-phosphate ([1]; metabolite ribulose-5-phosphate): -2.3648 | Log2(fold change) serine ([1]; metabolite serine): -0.3911 | Log2(fold change) sn-glycerol-3-phosphate ([1]; metabolite sn-glycerol-3-phosphate): -0.4279 | Log2(fold change) succinate/Methylmalonic acid ([1]; metabolite succinate/Methylmalonic acid): -3.0813 | Log2(fold change) succinyl-CoA/methylmalonyl-CoA ([1]; metabolite succinyl-CoA/methylmalonyl-CoA): -1.6128 | Log2(fold change) taurine ([1]; metabolite taurine): 0.0000 | Log2(fold change) thiamine ([1]; metabolite thiamine): 0.0000 | Log2(fold change) threonine/homoserine ([1]; metabolite threonine/homoserine): -0.6870 | Log2(fold change) thymidine ([1]; metabolite thymidine): 0.0000 | Log2(fold changes) thymine ([1]; metabolite thymine, log2 fold change): 0.0000 | Log2(fold changes) trehalose-6-Phosphate ([1]; metabolite trehalose-6-Phosphate, log2 fold change): 0.0000 | Log2(fold changes) tryptophan ([1]; metabolite tryptophan, log2 fold change): 0.1771 | Log2(fold changes) tyrosine ([1]; metabolite tyrosine, log2 fold change): -0.0043 | Log2(fold changes) uridine ([1]; metabolite uridine, log2 fold change): 0.0000 | IC50 [2]: 0.0111 µM | IC50 ([3]; 3D7, 8 h, read-out: IC50^8h values at all tested stages, 8-h exposures, all asexual blood stages): > 1 µM | IC50 ([3]; 3D7, read-out: Early rings Mean IC50 (IC50^8h), 8-h exposure 0–8 hr, 3D7-A10, survival at 60 h): 7.63 µM | IC50 ([3]; 3D7, read-out: Early trophozoites Mean IC50 (IC50^8h), 8-h exposure 16–24 hr, 3D7-A10, survival at 60 h): 2.13 µM | IC50 ([3]; 3D7, read-out: Late rings Mean IC50 (IC50^8h), 8-h exposure 8–16 hr, 3D7-A10, survival at 60 h): 4.87 µM | IC50 ([3]; 3D7, read-out: Late trophozoites Mean IC50 (IC50^8h), 8-h exposure 24–32 hr, 3D7-A10, survival at 60 h): 2.53 µM | IC50 ([3]; 3D7, read-out: Schizonts Mean IC50 (IC50^8h), 8-h exposure 32–40 hr, 3D7-A10, survival at 60 h): 3.37 µM
